We go through 20 compounds from patent US10314823B2, “Substituted 1,2-dihydro-3H-pyrrolo[1,2-c]imidazol-3-one antibacterial compounds” (IDORSIA PHARMACEUTICALS LTD, priority 2015, dated 2019).

Common to all, as to test: Bacterial growth minimal inhibitory concentration (CLSI broth microdilution)
Holding throughout (type): cell-based
For orientation: In broth dilution the organism is exposed to a series of concentrations in liquid medium.

The test system of one assay is K. pneumoniae A-651. The following applies: Klebsiella pneumoniae, A651; multiply resistant strain (in particular quinolone-resistant); cation-adjusted Mueller-Hinton Broth. Put shortly: (§1)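 Following CLSI document M7-A7, minimal inhibitory concentrations in mg/L come from microdilution in cation-adjusted Mueller-Hinton broth, tested against quinolone-resistant K. pneumoniae A-651 and quinolone-sensitive E. coli ATCC25922 and P. aeruginosa ATCC27853.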

The next assay deals with E. coli ATCC25922. The following applies: Escherichia coli, ATCC25922; quinolone-sensitive strain; cation-adjusted Mueller-Hinton Broth. Put shortly:
as §1

The test system of another assay is P. aeruginosa ATCC27853. The following applies: Pseudomonas aeruginosa, ATCC27853; quinolone-sensitive strain; cation-adjusted Mueller-Hinton Broth. Put shortly: as §1

Converted amounts (≈) assume the structure as drawn.

As usually defined, the MIC is the least concentration at which growth counts as inhibited. Higher therefore signals a less susceptible organism. As for `CNC1(C#CC#Cc2cc3n(c2)C(=O)N(CC[C@](C)(C(=O)NO)S(C)(=O)=O)C3)CC1` [Example 38, (2R)—N-hydroxy-2-methyl-4-(6-((1-(methylamino)cyclopropyl)buta-1,3-diyn-1-yl)-3-oxo-1H-pyrrolo[1,2-c]imidazol-2(3H)-yl)-2-(methylsulfonyl)butanamide], the MIC in the assay on K. pneumoniae A-651 came to 0.25 µg/mL (≈ 0.578 µM); with E. coli ATCC25922, 0.063 µg/mL (≈ 0.146 µM); with P. aeruginosa ATCC27853, 0.5 µg/mL (≈ 1.16 µM).

For the compound `CN1CC(OC(=O)NCC#CC#Cc2cc3n(c2)C(=O)N(CC[C@](C)(C(=O)NO)S(C)(=O)=O)C3)C1` [Example 39, 1-methylazetidin-3-yl (3R)-(5-(2-(4-(hydroxyamino)-3-methyl-3-(methylsulfonyl)-4-oxobutyl)-3-oxo-2,3-dihydro-1H-pyrrolo[1,2-c]imidazol-6-yl)penta-2,4-diyn-1-yl)carbamate], the MIC in the assay with K. pneumoniae A-651 was found to be 4 µg/mL (≈ 7.91 µM); with E. coli ATCC25922, 8 µg/mL (≈ 15.8 µM); in the assay with P. aeruginosa ATCC27853, 4 µg/mL (≈ 7.91 µM).

Consider `C[C@@](CCN1Cc2cc(C#CC#CCN3CCC(O)CC3)cn2C1=O)(C(=O)NO)S(C)(=O)=O` [Example 40, (2R)—N-hydroxy-4-(6-(5-(4-hydroxypiperidin-1-yl)penta-1,3-diyn-1-yl)-3-oxo-1H-pyrrolo[1,2-c]imidazol-2(3H)-yl)-2-methyl-2-(methylsulfonyl)butanamide], for which the MIC in the assay with K. pneumoniae A-651, with E. coli ATCC25922 and against P. aeruginosa ATCC27853 was 2 µg/mL (≈ 4.2 µM) in each case.

As to `C[C@@](CCN1Cc2cc(C#CC#CC3CN(CCO)C3)cn2C1=O)(C(=O)NO)S(C)(=O)=O` [Example 41, (2R)—N-hydroxy-4-(6-((1-(2-hydroxyethyl)azetidin-3-yl)buta-1,3-diyn-1-yl)-3-oxo-1H-pyrrolo[1,2-c]imidazol-2(3H)-yl)-2-methyl-2-(methylsulfonyl)butanamide], the MIC in the assay with K. pneumoniae A-651, with E. coli ATCC25922 and against P. aeruginosa ATCC27853 was 0.5 µg/mL (≈ 1.08 µM) throughout.

Take `C[C@@](CCN1Cc2cc(C#Cc3ccc(CN4CC(O)C4)cc3)cn2C1=O)(C(=O)NO)S(C)(=O)=O` [Example 43, (2R)—N-hydroxy-4-(6-((4-((3-hydroxyazetidin-1-yl)methyl)phenyl)ethynyl)-3-oxo-1H-pyrrolo[1,2-c]imidazol-2(3H)-yl)-2-methyl-2-(methylsulfonyl)butanamide]: the figures for the minimum inhibitory concentration (MIC) with K. pneumoniae A-651, against E. coli ATCC25922 and against P. aeruginosa ATCC27853 were 2 µg/mL (≈ 4 µM), 0.5 µg/mL (≈ 0.999 µM) and 0.5 µg/mL (≈ 0.999 µM), respectively.

For `CN(C)C[C@@H]1C[C@H]1C#CC#Cc1cc2n(c1)C(=O)N(CC[C@](C)(C(=O)NO)S(C)(=O)=O)C2` [Example 44, (2R)-4-(6-(((1R,2R)-2-((dimethylamino)methyl)cyclopropyl)buta-1,3-diyn-1-yl)-3-oxo-1H-pyrrolo[1,2-c]imidazol-2(3H)-yl)-N-hydroxy-2-methyl-2-(methylsulfonyl)butanamide], the minimum inhibitory concentration (MIC) against K. pneumoniae A-651 is 2 µg/mL (≈ 4.34 µM); in the assay with E. coli ATCC25922 it was 2 µg/mL (≈ 4.34 µM); with P. aeruginosa ATCC27853, 4 µg/mL (≈ 8.69 µM).

Turning to `C[C@@](CCN1Cc2cc(C#CC#CC3(O)CCN(C4COC4)CC3)cn2C1=O)(C(=O)NO)S(C)(=O)=O` [Example 45, (2R)—N-hydroxy-4-(6-((4-hydroxy-1-(oxetan-3-yl)piperidin-4-yl)buta-1,3-diyn-1-yl)-3-oxo-1H-pyrrolo[1,2-c]imidazol-2(3H)-yl)-2-methyl-2-(methylsulfonyl)butanamide], the MIC was 8 µg/mL (≈ 15.4 µM) against K. pneumoniae A-651, 8 µg/mL (≈ 15.4 µM) against E. coli ATCC25922 and more than 8 µg/mL in the assay on P. aeruginosa ATCC27853.

In the case of `CN1CCC(F)(C#CC#Cc2cc3n(c2)C(=O)N(CC[C@](C)(C(=O)NO)S(C)(=O)=O)C3)CC1` [Example 46, (2R)-4-(6-((4-fluoro-1-methylpiperidin-4-yl)buta-1,3-diyn-1-yl)-3-oxo-1H-pyrrolo[1,2-c]imidazol-2(3H)-yl)-N-hydroxy-2-methyl-2-(methylsulfonyl)butanamide], the MIC in the assay with K. pneumoniae A-651 came out at 1 µg/mL (≈ 2.09 µM); in the assay on E. coli ATCC25922, 0.5 µg/mL (≈ 1.04 µM); with P. aeruginosa ATCC27853, 1 µg/mL (≈ 2.09 µM).

For the compound `C[C@@](CCN1Cc2cc(C#CC#CC3(F)CCN(C4COC4)CC3)cn2C1=O)(C(=O)NO)S(C)(=O)=O` [Example 47, (2R)-4-(6-((4-fluoro-1-(oxetan-3-yl)piperidin-4-yl)buta-1,3-diyn-1-yl)-3-oxo-1H-pyrrolo[1,2-c]imidazol-2(3H)-yl)-N-hydroxy-2-methyl-2-(methylsulfonyl)butanamide], the minimal inhibitory concentration (MIC) in the assay with K. pneumoniae A-651 was determined as 2 µg/mL (≈ 3.84 µM); against E. coli ATCC25922 it was 0.5 µg/mL (≈ 0.96 µM); against P. aeruginosa ATCC27853 it was 2 µg/mL (≈ 3.84 µM).

Regarding `CN1CCC(O)(C#CC#Cc2cc3n(c2)C(=O)N(CC[C@](C)(C(=O)NO)S(C)(=O)=O)C3)CC1` [Example 48, (2R)—N-hydroxy-4-(6-((4-hydroxy-1-methylpiperidin-4-yl)buta-1,3-diyn-1-yl)-3-oxo-1H-pyrrolo[1,2-c]imidazol-2(3H)-yl)-2-methyl-2-(methylsulfonyl)butanamide], the MIC in the assay on K. pneumoniae A-651 was more than 8 µg/mL; against E. coli ATCC25922, more than 8 µg/mL; in the assay on P. aeruginosa ATCC27853, 4 µg/mL (≈ 8.39 µM).

For `C[C@@](CCN1Cc2cc(C#Cc3ccc(CN4CC(F)C4)cc3)cn2C1=O)(C(=O)NO)S(C)(=O)=O` [Example 49, (2R)-4-(6-((4-((3-fluoroazetidin-1-yl)methyl)phenyl)ethynyl)-3-oxo-1H-pyrrolo[1,2-c]imidazol-2(3H)-yl)-N-hydroxy-2-methyl-2-(methylsulfonyl)butanamide], the MIC is 0.125 µg/mL (≈ 0.249 µM) against K. pneumoniae A-651, less than 0.063 µg/mL in the assay on E. coli ATCC25922 and 1 µg/mL (≈ 1.99 µM) in the assay on P. aeruginosa ATCC27853.

Turning to `CN1CCN(C(=O)OCC#CC#Cc2cc3n(c2)C(=O)N(CC[C@](C)(C(=O)NO)S(C)(=O)=O)C3)CC1` [Example 50, (3R)-5-(2-(4-(hydroxyamino)-3-methyl-3-(methylsulfonyl)-4-oxobutyl)-3-oxo-2,3-dihydro-1H-pyrrolo[1,2-c]imidazol-6-yl)penta-2,4-diyn-1-yl 4-methylpiperazine-1-carboxylate], the figures for the MIC against K. pneumoniae A-651, with E. coli ATCC25922 and with P. aeruginosa ATCC27853 were 1 µg/mL (≈ 1.92 µM), 1 µg/mL (≈ 1.92 µM) and 2 µg/mL (≈ 3.85 µM), respectively.

Regarding `C[C@@](CCN1Cc2cc(C#CC#CC3CN(C[C@@H](O)CO)C3)cn2C1=O)(C(=O)NO)S(C)(=O)=O` [Example 51, (2R)-4-(6-((1-((R)-2,3-dihydroxypropyl)azetidin-3-yl)buta-1,3-diyn-1-yl)-3-oxo-1H-pyrrolo[1,2-c]imidazol-2(3H)-yl)-N-hydroxy-2-methyl-2-(methylsulfonyl)butanamide], the MIC is 4 µg/mL (≈ 8.12 µM) in the assay on K. pneumoniae A-651, 1 µg/mL (≈ 2.03 µM) with E. coli ATCC25922 and 1 µg/mL (≈ 2.03 µM) in the assay on P. aeruginosa ATCC27853.

Regarding `[2H]C([2H])N1CC(C#CC#Cc2cc3n(c2)C(=O)N(CC[C@](C)(C(=O)NO)S(C)(=O)=O)C3)C1` [Example 52, (2R)—N-hydroxy-2-methyl-4-(6-((1-(methyl-d2)azetidin-3-yl)buta-1,3-diyn-1-yl)-3-oxo-1H-pyrrolo[1,2-c]imidazol-2(3H)-yl)-2-(methylsulfonyl)butanamide], the MIC against K. pneumoniae A-651, in the assay on E. coli ATCC25922 and with P. aeruginosa ATCC27853 was 0.5 µg/mL (≈ 1.15 µM) in each case.

Regarding `C[C@@](CCN1Cc2cc(C#CC#C[C@@H]3C[C@H](F)CN3)cn2C1=O)(C(=O)NO)S(C)(=O)=O.Cl` [Example 53, (2R)-4-(6-(((2S,4S)-4-fluoropyrrolidin-2-yl)buta-1,3-diyn-1-yl)-3-oxo-1H-pyrrolo[1,2-c]imidazol-2(3H)-yl)-N-hydroxy-2-methyl-2-(methylsulfonyl)butanamide hydrochloride], the MIC with K. pneumoniae A-651, in the assay with E. coli ATCC25922 and in the assay on P. aeruginosa ATCC27853 was 4 µg/mL in each case.

Regarding `CCN1CC(C#CC#Cc2cc3n(c2)C(=O)N(CC[C@](C)(C(=O)NO)S(C)(=O)=O)C3)C1` [Example 54, (2R)-4-(6-((1-ethylazetidin-3-yl)buta-1,3-diyn-1-yl)-3-oxo-1H-pyrrolo[1,2-c]imidazol-2(3H)-yl)-N-hydroxy-2-methyl-2-(methylsulfonyl)butanamide], the figures for the MIC in the assay on K. pneumoniae A-651, in the assay with E. coli ATCC25922 and in the assay on P. aeruginosa ATCC27853 were 0.5 µg/mL (≈ 1.12 µM), 0.25 µg/mL (≈ 0.56 µM) and 0.5 µg/mL (≈ 1.12 µM), respectively.

As to `C[C@@](CCN1Cc2cc(C#CC#CC3CN(CC4CC4)C3)cn2C1=O)(C(=O)NO)S(C)(=O)=O` [Example 55, (2R)-4-(6-((1-(cyclopropylmethyl)azetidin-3-yl)buta-1,3-diyn-1-yl)-3-oxo-1H-pyrrolo[1,2-c]imidazol-2(3H)-yl)-N-hydroxy-2-methyl-2-(methylsulfonyl)butanamide], the results for the MIC in the assay with K. pneumoniae A-651, against E. coli ATCC25922 and with P. aeruginosa ATCC27853 were 0.25 µg/mL (≈ 0.529 µM), 0.125 µg/mL (≈ 0.265 µM) and 1 µg/mL (≈ 2.12 µM), respectively.

As for `C[C@@](CCN1Cc2cc(C#CC#C[C@H]3C[C@@H]3[C@@H](O)CO)cn2C1=O)(C(=O)NO)S(C)(=O)=O` [Example 56, (2R)-4-(6-(((1S,2S)-2-((R)-1,2-dihydroxyethyl)cyclopropyl)buta-1,3-diyn-1-yl)-3-oxo-1H-pyrrolo[1,2-c]imidazol-2(3H)-yl)-N-hydroxy-2-methyl-2-(methylsulfonyl)butanamide], the MIC against K. pneumoniae A-651 came out at 1 µg/mL (≈ 2.16 µM); against E. coli ATCC25922, 0.25 µg/mL (≈ 0.539 µM); in the assay on P. aeruginosa ATCC27853, 0.5 µg/mL (≈ 1.08 µM).

On to `C[C@@](CCN1Cc2cc(C#CC#CC3CN(C4CC4)C3)cn2C1=O)(C(=O)NO)S(C)(=O)=O` [Example 57, (2R)-4-(6-((1-cyclopropylazetidin-3-yl)buta-1,3-diyn-1-yl)-3-oxo-1H-pyrrolo[1,2-c]imidazol-2(3H)-yl)-N-hydroxy-2-methyl-2-(methylsulfonyl)butanamide], for which the MIC against K. pneumoniae A-651 turned out to be 0.5 µg/mL (≈ 1.09 µM); in the assay with E. coli ATCC25922, 0.125 µg/mL (≈ 0.273 µM); against P. aeruginosa ATCC27853, 0.063 µg/mL (≈ 0.137 µM).

As to `C[C@@](CCN1Cc2cc(C#CC#CC3CN(CC(F)(F)F)C3)cn2C1=O)(C(=O)NO)S(C)(=O)=O` [Example 58, (2R)—N-hydroxy-2-methyl-2-(methylsulfonyl)-4-(3-oxo-6-((1-(2,2,2-trifluoroethyl)azetidin-3-yl)buta-1,3-diyn-1-yl)-1H-pyrrolo[1,2-c]imidazol-2(3H)-yl)butanamide], the MIC stood at 4 µg/mL (≈ 7.99 µM) against K. pneumoniae A-651, 0.5 µg/mL (≈ 0.999 µM) in the assay with E. coli ATCC25922 and 0.25 µg/mL (≈ 0.5 µM) against P. aeruginosa ATCC27853.
